Experimental data reported in PMC6934184, “Selective DNA-PKcs inhibition extends the therapeutic index of localized radiotherapy and chemotherapy” (The Journal of Clinical Investigation, 2019).

Biological target: T1, PRKCQ (PKC theta) (Homo sapiens, UniProt Q04759)
T1 construct: purchased Thermo Fisher Scientific (Life Technologies) SelectScreen
Assay: SelectScreen Z'LYTE
Format: biochemical
Method in brief: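 NU5455 was profiled across the SelectScreen Broad panel of kinase activity and binding assays. Z'LYTE reactions such as CSF1R ran at apparent Km ATP, while the Adapta CAMK1 assay used ATP listed as 10. Values are given as percent.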

T1 sequence (Q04759 whole entry): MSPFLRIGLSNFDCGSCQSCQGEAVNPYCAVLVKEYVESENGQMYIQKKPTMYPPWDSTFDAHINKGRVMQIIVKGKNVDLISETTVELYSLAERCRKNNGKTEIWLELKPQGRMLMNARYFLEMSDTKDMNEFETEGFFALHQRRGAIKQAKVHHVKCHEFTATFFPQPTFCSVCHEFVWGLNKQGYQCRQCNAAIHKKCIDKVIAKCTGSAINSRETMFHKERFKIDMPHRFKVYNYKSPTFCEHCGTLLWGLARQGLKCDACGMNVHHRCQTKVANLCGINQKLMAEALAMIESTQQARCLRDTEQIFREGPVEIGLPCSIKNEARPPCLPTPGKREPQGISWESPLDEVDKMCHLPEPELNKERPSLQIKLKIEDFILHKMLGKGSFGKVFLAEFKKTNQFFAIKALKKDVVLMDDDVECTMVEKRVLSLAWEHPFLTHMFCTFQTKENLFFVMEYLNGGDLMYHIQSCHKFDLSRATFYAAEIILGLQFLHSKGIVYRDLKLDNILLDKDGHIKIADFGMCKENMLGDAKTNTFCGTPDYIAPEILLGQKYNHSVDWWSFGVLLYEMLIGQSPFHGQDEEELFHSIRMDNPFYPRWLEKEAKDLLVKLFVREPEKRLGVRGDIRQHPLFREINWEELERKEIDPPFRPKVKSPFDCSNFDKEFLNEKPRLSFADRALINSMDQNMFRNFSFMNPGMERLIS

CN(C(=O)CN1CCOCC1)c1ccc2sc3c(-c4cccc5c(=O)cc(N6CC7CCC(C6)O7)oc45)cccc3c2c1 [NU5455]
inhibition at 1 µM: -3.7%
